Where two headings read alike, the source gives them in different places.
System: OF1 mice
Assay: Maximal electroshock test (MES Test)
Type: in vivo
Conditions: Mus musculus, read-out: %-Protection; for responders at 50 mg/kg: p.o.
Summary of the method: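 Readout: fraction of five OF1 mice protected, meaning seizure duration 3 s or less, after a 50 Hz, 18 mA, 0.2 s temporal-electrode shock. Dosing was oral, usually 50 mg/kg, one hour beforehand; ED50 values were derived and post-shock blood taken for exposure.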

[1] = po, 50 mg/kg, pre-treatment time −0.5 h (footnote d)
[2] = po, 50 mg/kg, pre-treatment time −1 h
[3] = dose of up to 50 mg/kg, 1 hour prior to induction of convulsions

CC(=O)N(n1c(=O)[nH]c2cc(C(F)(F)F)c([C@H]3CCCO3)cc2c1=O)S(C)(=O)=O [Example 10.01, N-Acetyl-N—((R)-2,4-dioxo-6-tetrahydro-furan-2-yl-7-trifluoromethyl-1,4-dihydro-2H-quinazolin-3-yl)-methanesulfonamide]
responders at 50 mg/kg [1]: 40%
responders at 50 mg/kg [2]: 80%

COC(=O)N(n1c(=O)[nH]c2cc(C(F)(F)F)c(-c3ccnn3C(C)C)cc2c1=O)S(C)(=O)=O [[6-(2-Isopropyl-2H-pyrazol-3-yl)-2,4-dioxo-7-trifluoromethyl-1,4-dihydro-2H-quinazolin-3-yl]-methanesulfonyl-carbamic acid methyl ester]
responders at 50 mg/kg [3]: 0%

CCCOC(=O)N(n1c(=O)[nH]c2cc(C(F)(F)F)c([C@H]3CCCO3)cc2c1=O)S(C)(=O)=O [Methanesulfonyl-[(R)-2,4-Dioxo-6-tetrahydro-furan-2-yl-7-trifluoromethyl-1,4-dihydro-2H-quinazolin-3-yl]carbamic acid propyl ester]
responders at 50 mg/kg [3]: 0%

CC(C)CC(=O)N(n1c(=O)[nH]c2cc(C(F)(F)F)c(-n3ccnc3)cc2c1=O)S(C)(=O)=O [Example 4.06, N-(6-Imidazol-1-yl-2,4-dioxo-7-trifluoromethyl-1,4-dihydro-2H-quinazolin-3-yl)-N-(3-methyl-butyryl)-methanesulfonamide]
responders at 50 mg/kg [2]: 20%

CCOC(=O)CCC(=O)N(n1c(=O)[nH]c2cc(C(F)(F)F)c(-n3ccnc3)cc2c1=O)S(C)(=O)=O [Example 4.01, 4-[(6-Imidazol-1-yl-2,4-dioxo-7-trifluoromethyl-1,4-dihydro-2H-quinazolin-3-yl)-methanesulfonyl-amino]-4-oxo-butyric acid ethyl ester]
responders at 50 mg/kg [2]: 20%

CCCCCCCCCC(=O)N(n1c(=O)[nH]c2cc(C(C)C)c(-c3ccnn3C)cc2c1=O)S(C)(=O)=O [Example 3.15, N-Decanoyl-N-[7-isopropyl-6-(2-methyl-2H-pyrazol-3-yl)-2,4-dioxo-1,4-dihydro-2H-quinazolin-3-yl]-methanesulfonamide]
responders at 25 mg/kg (sc, Dose: 25 mg/kg, s.c., pre-treatment time −4 h (footnote f)): 20%
responders at 50 mg/kg [3]: 0%

CCc1cc2[nH]c(=O)n(N(C(=O)OC)S(C)(=O)=O)c(=O)c2cc1-c1ccnn1CC [Methanesulfonyl-[7-ethyl-6-(2-ethyl-2H-pyrazol-3-yl)-2,4-dioxo-1,4-dihydro-2H-quinazolin-3-yl]carbamic acid methyl ester]
responders at 50 mg/kg [3]: 0%

CCCOC(=O)N(n1c(=O)[nH]c2cc(CC)c(-c3ccnn3C)cc2c1=O)S(C)(=O)=O [Example 2.06, Methanesulfonyl-[7-ethyl-6-(2-methyl-2H-pyrazol-3-yl)-2,4-dioxo-1,4-dihydro-2H-quinazolin-3-yl]-carbamic acid propyl ester]
responders at 50 mg/kg [2]: 60%

COCCOCCOCC(=O)N(n1c(=O)[nH]c2cc(C(C)C)c(-c3ccnn3C)cc2c1=O)S(C)(=O)=O [Example 3.28, N-[7-Isopropyl-6-(2-methyl-2H-pyrazol-3-yl)-2,4-dioxo-1,4-dihydro-2H-quinazolin-3-yl]-N-[2-[2-(2-methoxy-ethoxy)-ethoxy]-acetyl]-methanesulfonamide]
responders at 50 mg/kg [2]: 100%

CCOC(=O)CCC(=O)N(n1c(=O)[nH]c2cc(C(F)(F)F)c([C@H]3CCCO3)cc2c1=O)S(C)(=O)=O [Example 10.10]
responders at 50 mg/kg [2]: 20%

CCC(=O)N(n1c(=O)[nH]c2cc(C(F)(F)F)c([C@H]3CCCO3)cc2c1=O)S(C)(=O)=O [Example 10.02, N—((R)-2,4-Dioxo-6-tetrahydro-furan-2-yl-7-trifluoromethyl-1,4-dihydro-2H-quinazolin-3-yl)-N-propionyl-methanesulfonamide]
responders at 50 mg/kg [1]: 60%
responders at 50 mg/kg [2]: 60%

CCCOC(=O)N(n1c(=O)[nH]c2cc(C(F)(F)F)c(C(CC)OC)cc2c1=O)S(C)(=O)=O (stereo not drawn) [Example 11.04, Methanesulfonyl-[6-(1-methoxy-propyl)-2,4-dioxo-7-trifluoromethyl-1,4-dihydro-2H-quinazolin-3-yl]-carbamic acid propyl ester]
responders at 50 mg/kg [2]: 20%

From patent US20130053381A1, “2,4-DIOXO-1,4-DIHYDRO-2H-QUINAZOLIN-3-YL-SULFONAMIDE DERIVATIVES” (NOVARTIS AG, priority 2010, published 2013)
